Patent US20030073681A1, “2-substituted piperidines that are ligands for monoamine receptors and transporters” (priority 2001, published 2003)

Assays:
Human 5-HT Receptor [1] = target: T1, Human 5-HT Receptor (Homo sapiens, UniProt P31645); test: Functional activity for serotonin uptake inhibition in human HEK-293 cell lines; assay type: cell-based; design: expressed in transfected cells; host or cells: HEK-293; settings: read-out: Functional Assays (EC50, nM) Human 5-HT Receptor
Human DA Receptor [2] = target: T2, Human DA Receptor (Homo sapiens, UniProt Q01959); test: Dopamine functional activity in hDAT cell line; assay type: cell-based; design: expressed in transfected cells; settings: read-out: Functional Assays (EC50, nM) Human DA Receptor
Human NE Receptor [3] = target: T3, Human NE Receptor (Homo sapiens, UniProt P23975); test: Functional activity for norephinephrine uptake inhibition in MDCK cell lines; assay type: cell-based; settings: read-out: Functional Assays (EC50, nM) Human NE Receptor
Human NE Receptor [4] = target: T3, Human NE Receptor; test: Displacement of norephinephrine ligands in vitro (uptake profile); assay type: binding
Human DA Receptor [5] = target: T2, Human DA Receptor; test: Displacement of dopamine ligands in vitro (uptake profile)
Human 5-HT Receptor [6] = target: T1, Human 5-HT Receptor; test: Displacement of serotonin ligands in vitro (uptake profile); assay type: binding

T1 sequence (P31645 whole entry): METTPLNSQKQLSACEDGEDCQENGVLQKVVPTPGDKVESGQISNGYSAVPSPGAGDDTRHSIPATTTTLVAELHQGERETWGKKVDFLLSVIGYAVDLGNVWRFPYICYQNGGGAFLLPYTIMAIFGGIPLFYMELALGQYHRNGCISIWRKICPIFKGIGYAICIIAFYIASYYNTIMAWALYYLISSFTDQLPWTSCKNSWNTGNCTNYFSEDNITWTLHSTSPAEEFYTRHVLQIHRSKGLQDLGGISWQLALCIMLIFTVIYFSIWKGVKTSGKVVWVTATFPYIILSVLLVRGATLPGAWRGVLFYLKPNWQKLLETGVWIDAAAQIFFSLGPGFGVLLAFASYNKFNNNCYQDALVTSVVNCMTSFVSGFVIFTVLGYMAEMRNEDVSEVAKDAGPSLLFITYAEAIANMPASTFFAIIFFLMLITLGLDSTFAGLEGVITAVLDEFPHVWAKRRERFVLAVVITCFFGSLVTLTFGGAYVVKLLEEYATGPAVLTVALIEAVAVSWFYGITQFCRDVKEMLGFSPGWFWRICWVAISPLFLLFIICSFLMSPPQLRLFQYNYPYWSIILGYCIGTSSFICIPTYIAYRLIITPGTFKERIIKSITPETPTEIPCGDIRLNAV
T2 sequence (Q01959 whole entry): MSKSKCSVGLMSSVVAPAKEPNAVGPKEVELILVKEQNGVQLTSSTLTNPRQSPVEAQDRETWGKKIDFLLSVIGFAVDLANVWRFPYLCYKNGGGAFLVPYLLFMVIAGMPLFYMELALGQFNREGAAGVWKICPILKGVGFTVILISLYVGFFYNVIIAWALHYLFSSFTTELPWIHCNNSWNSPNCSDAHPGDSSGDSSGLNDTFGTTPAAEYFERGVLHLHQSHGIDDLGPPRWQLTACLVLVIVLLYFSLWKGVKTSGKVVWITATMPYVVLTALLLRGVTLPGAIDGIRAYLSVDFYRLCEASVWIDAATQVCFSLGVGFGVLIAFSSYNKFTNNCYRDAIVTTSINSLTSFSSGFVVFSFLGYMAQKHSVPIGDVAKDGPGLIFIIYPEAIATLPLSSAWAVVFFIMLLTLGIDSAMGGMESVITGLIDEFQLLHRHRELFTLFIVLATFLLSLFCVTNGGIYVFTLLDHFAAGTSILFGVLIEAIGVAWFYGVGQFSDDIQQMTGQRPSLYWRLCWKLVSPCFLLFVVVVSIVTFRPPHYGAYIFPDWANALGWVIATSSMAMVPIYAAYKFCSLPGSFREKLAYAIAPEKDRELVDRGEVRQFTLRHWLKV
T3 sequence (P23975 whole entry): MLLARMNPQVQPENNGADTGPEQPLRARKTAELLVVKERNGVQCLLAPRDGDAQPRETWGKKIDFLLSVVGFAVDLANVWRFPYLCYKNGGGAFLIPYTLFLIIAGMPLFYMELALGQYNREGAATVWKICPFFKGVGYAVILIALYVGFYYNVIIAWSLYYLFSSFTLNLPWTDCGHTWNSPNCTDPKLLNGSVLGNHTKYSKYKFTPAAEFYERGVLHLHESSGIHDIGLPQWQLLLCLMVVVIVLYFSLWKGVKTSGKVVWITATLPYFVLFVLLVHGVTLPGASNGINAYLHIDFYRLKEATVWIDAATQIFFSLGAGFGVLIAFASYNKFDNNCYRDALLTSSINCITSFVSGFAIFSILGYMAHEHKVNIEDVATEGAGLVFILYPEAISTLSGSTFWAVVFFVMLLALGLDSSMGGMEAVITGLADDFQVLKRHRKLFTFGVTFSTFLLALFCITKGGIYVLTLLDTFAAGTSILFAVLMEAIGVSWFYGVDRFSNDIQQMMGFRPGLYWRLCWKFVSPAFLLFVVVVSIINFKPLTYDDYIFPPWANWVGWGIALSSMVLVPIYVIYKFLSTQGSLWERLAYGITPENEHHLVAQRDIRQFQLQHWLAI

Row | SMILES | EC50 (Human 5-HT Receptor [1]) [nM] | EC50 (Human DA Receptor [2]) [nM] | EC50 (Human NE Receptor [3]) [nM] | IC50 (Human NE Receptor [4]) [nM] | IC50 (Human DA Receptor [5]) [µM] | IC50 (Human 5-HT Receptor [6]) [nM]
1 | CN1CCN(CC(O)c2ccc(Cl)cc2)C(CCc2ccc(C(F)(F)F)cc2)C1 (stereo not drawn) [Compound 30, 1-(4-Chloro-phenyl)-2-{4-methyl-2-[2-(4-trifluoromethyl-phenyl)-ethyl]-piperazin-1-yl}-ethanol] | < 1000 | > 1000 | > 1000 |  |  | 
2 | CC(CN1CCCCC1CCOc1ccc(C(F)(F)F)cc1)C(O)c1ccc(Cl)cc1 (stereo not drawn) [Compound 14, 1-(4-Chloro-phenyl)-2-methyl-3-{2-[2-(4-trifluoromethyl-phenoxy)-ethyl]-piperidin-1-yl}-propan-1-ol] |  |  |  | < 1000 | < 0.1 | < 1000
3 | O[C@H](CN1CCCCC1CCOc1ccc(C(F)(F)F)cc1)C1(c2ccc(Cl)cc2)CCC1 (stereo partly drawn) [Compound 9, 1-[1-(4-Chloro-phenyl)-cyclobutyl]-2-{2-[2-(4-trifluoromethyl-phenoxy)-ethyl]-piperidin-1-yl}-S-ethanol] | < 100 | < 100 | < 10 | < 100 | < 0.01 | < 1000
4 | FC(F)(F)c1ccc(OCCC2CCCCN2CC2(c3ccc(Cl)cc3)CCC2)cc1 (stereo not drawn) [Compound 7, 1-[1-(4-Chloro-phenyl)-cyclobutylmethyl]-2-[2-(4-trifluoromethyl-phenoxy)-ethyl]-piperidine] |  |  |  | < 1000 | < 0.1 | > 1000

Second part, the compound after the results:

Row | EC50 (Human 5-HT Receptor [1]) [nM] | EC50 (Human DA Receptor [2]) [nM] | EC50 (Human NE Receptor [3]) [nM] | IC50 (Human NE Receptor [4]) [nM] | IC50 (Human DA Receptor [5]) [µM] | IC50 (Human 5-HT Receptor [6]) [nM] | SMILES
5 | < 1000 | < 1000 | > 1000 |  |  |  | O=C(CCCN1CCCCC1CCOc1ccc(C(F)(F)F)cc1)c1ccc(F)cc1 (stereo not drawn) [Compound 32, 1-(4-Fluoro-phenyl)-4-{2-[2-(4-trifluoromethyl-phenoxy)-ethyl]-piperidin-1-yl}-butan-1-one]
6 |  |  |  | < 100 | < 0.01 | < 1000 | OC(CN1CCCCC1CCOc1ccc(C(F)(F)F)cc1)C1(c2ccc(Cl)c(Cl)c2)CCC1 (stereo not drawn) [Compound 18, 1-[1-(3,4-Dichloro-phenyl)-cyclobutyl]-2-{2-[2-(4-trifluoromethyl-phenoxy)-ethyl]-piperidin-1-yl}-ethanol]
7 |  |  |  | > 1000 | > 1 | > 1000 | CC(CN1CCCCC1CCOc1ccc(C(F)(F)F)cc1)C(=O)c1ccc(Cl)cc1 (stereo not drawn) [Compound 13, 1-(4-Chloro-phenyl)-2-methyl-3-{2-[2-(4-trifluoromethyl-phenoxy)-ethyl]-piperidin-1-yl}-propan-1-one]
